The record followed here is ChEMBL document CHEMBL3044925, “Synthesis of piperazino and morpholino derivatives of aryloxypropane with potential analgesic and possible antimigraine activities” (Med Chem Res, 2011).

Data set [1] relates to Mus musculus. Nature of the data set: Neurotoxicity against Mus musculus MFI (mouse) assessed as irritability at 180 mg/kg, ip. In kind it is toxicity, organism-based. More on the design: dose 180 mg/kg, route intraperitoneal. Particulars: in vivo.
The subject of data set [2] is Mus musculus. Nature of the data set: Neurotoxicity against Mus musculus MFI (mouse) assessed as skeletal muscle incoordination at 60 mg/kg, ip. More on the design: dose 60 mg/kg, route intraperitoneal. In kind it is toxicity, organism-based, Muscle tissue. The note with it: in vivo.
Data set [3] concerns Mus musculus. Nature of the data set: Neurotoxicity against Mus musculus MFI (mouse) assessed as hair erection at 120 mg/kg, ip. Particulars: in vivo. Also on record: dose 120 mg/kg, route intraperitoneal. In kind it is toxicity, organism-based.
Data set [4] deals with Mus musculus. Nature of the data set: Neurotoxicity against Mus musculus MFI (mouse) assessed as tail erection at 60 mg/kg, ip. In kind it is toxicity, organism-based. Also on record: dose 60 mg/kg, route intraperitoneal. Particulars: in vivo.
In data set [5] the test system is Mus musculus. Nature of the data set: Neurotoxicity against Mus musculus MFI (mouse) assessed as muscle twitching at 120 mg/kg, ip. In kind it is toxicity, organism-based, Muscle tissue. More on the design: dose 120 mg/kg, route intraperitoneal. Particulars: in vivo.
Data set [6] has as its system Mus musculus. Put plainly: Neurotoxicity against Mus musculus MFI (mouse) assessed as muscle twitching at 180 mg/kg, ip. More on the design: dose 180 mg/kg, route intraperitoneal. In kind it is toxicity, organism-based, Muscle tissue. Particulars: in vivo.
Data set [7] deals with Mus musculus. Put plainly: Neurotoxicity against Mus musculus MFI (mouse) assessed as effect on respiration at 60 mg/kg, ip. More on the design: dose 60 mg/kg, route intraperitoneal. In kind it is toxicity, organism-based. The note with it: in vivo.
For data set [8], the system named is Mus musculus. Put plainly: Neurotoxicity against Mus musculus MFI (mouse) assessed as tail erection at 180 mg/kg, ip. In kind it is toxicity, organism-based. More on the design: dose 180 mg/kg, route intraperitoneal. The note with it: in vivo.
Data set [9] has as its system Mus musculus. Nature of the data set: […] activity in Mus musculus MFI (mouse) assessed as inhibition of PBQ-induced writhing at 180 mg/kg, ip administered 1.5 hr prior to PBQ-challenge measured after 10 min relative to aspirin. In kind it is functional. The note with it: route intraperitoneal.
For data set [10], the system named is Mus musculus. Put plainly: Neurotoxicity against Mus musculus MFI (mouse) assessed as tremors at 180 mg/kg, ip. In kind it is toxicity, organism-based. Particulars: in vivo. More on the design: dose 180 mg/kg, route intraperitoneal.
The test system of data set [11] is Mus musculus. Put plainly: Neurotoxicity against Mus musculus MFI (mouse) assessed as eye protrusion at 60 mg/kg, ip. Also on record: dose 60 mg/kg, route intraperitoneal. In kind it is toxicity, organism-based. The note with it: in vivo.
Data set [12] deals with Mus musculus. Nature of the data set: Neurotoxicity against Mus musculus MFI (mouse) assessed as skeletal muscle incoordination at 180 mg/kg, ip. In kind it is toxicity, organism-based, Muscle tissue. More on the design: dose 180 mg/kg, route intraperitoneal. Particulars: in vivo.
The test system of data set [13] is Mus musculus. Put plainly: Neurotoxicity against Mus musculus MFI (mouse) assessed as irritability at 60 mg/kg, ip. In kind it is toxicity, organism-based. More on the design: dose 60 mg/kg, route intraperitoneal. Particulars: in vivo.
In data set [14] the test system is Mus musculus. Put plainly: […] activity in Mus musculus MFI (mouse) assessed as inhibition of PBQ-induced writhing at 120 mg/kg, ip administered 1.5 hr prior to PBQ-challenge measured after 10 min relative to aspirin. Particulars: route intraperitoneal. In kind it is functional. A general note: An intraperitoneal irritant provokes the stretching counted in writhing tests.

For data set [15], the system named is Mus musculus. Nature of the data set: Neurotoxicity against Mus musculus MFI (mouse) assessed as tremors at 120 mg/kg, ip. In kind it is toxicity, organism-based. More on the design: dose 120 mg/kg, route intraperitoneal. Particulars: in vivo.
In data set [16] the test system is Mus musculus. Put plainly: […] activity in ip dosed Mus musculus MFI (mouse) assessed as inhibition of PBQ-induced writhing administered 1.5 hr prior to PBQ-challenge measured after 10 min. In kind it is functional. The note with it: read-out: MED.
For data set [17], the system named is Mus musculus. Nature of the data set: […] activity in Mus musculus MFI (mouse) assessed as inhibition of PBQ-induced writhing at 60 mg/kg, ip administered 1.5 hr prior to PBQ-challenge measured after 10 min relative to aspirin. In kind it is functional. The note with it: route intraperitoneal.
The subject of data set [18] is Mus musculus. Put plainly: Neurotoxicity against Mus musculus MFI (mouse) assessed as hair erection at 60 mg/kg, ip. In kind it is toxicity, organism-based. Also on record: dose 60 mg/kg, route intraperitoneal. The note with it: in vivo.
Data set [19] relates to Mus musculus. Put plainly: Neurotoxicity against Mus musculus MFI (mouse) assessed as excitation at 60 mg/kg, ip. Particulars: in vivo. Also on record: dose 60 mg/kg, route intraperitoneal. In kind it is toxicity, organism-based.
For data set [20], the system named is Mus musculus. Nature of the data set: Neurotoxicity against Mus musculus MFI (mouse) assessed as hair erection at 180 mg/kg, ip. In kind it is toxicity, organism-based. Also on record: dose 180 mg/kg, route intraperitoneal. The note with it: in vivo.
The test system of data set [21] is Mus musculus. Put plainly: Neurotoxicity against Mus musculus MFI (mouse) assessed as tail erection at 120 mg/kg, ip. More on the design: dose 120 mg/kg, route intraperitoneal. In kind it is toxicity, organism-based. Particulars: in vivo.
For data set [22], the system named is Mus musculus. Nature of the data set: Neurotoxicity against Mus musculus MFI (mouse) assessed as excitation at 180 mg/kg, ip. In kind it is toxicity, organism-based. More on the design: dose 180 mg/kg, route intraperitoneal. The note with it: in vivo.
Data set [23] concerns Mus musculus. Nature of the data set: Neurotoxicity against Mus musculus MFI (mouse) assessed as tremors at 60 mg/kg, ip. In kind it is toxicity, organism-based. More on the design: dose 60 mg/kg, route intraperitoneal. The note with it: in vivo.
Data set [24] has as its system Mus musculus. Nature of the data set: Neurotoxicity against Mus musculus MFI (mouse) assessed as eye protrusion at 120 mg/kg, ip. In kind it is toxicity, organism-based. More on the design: dose 120 mg/kg, route intraperitoneal. Particulars: in vivo.
Data set [25] relates to Mus musculus. Put plainly: Neurotoxicity against Mus musculus MFI (mouse) assessed as muscle twitching at 60 mg/kg, ip. In kind it is toxicity, organism-based, Muscle tissue. More on the design: dose 60 mg/kg, route intraperitoneal. The note with it: in vivo.
Data set [26] deals with Mus musculus. Put plainly: Neurotoxicity against Mus musculus MFI (mouse) assessed as excitation at 120 mg/kg, ip. In kind it is toxicity, organism-based. More on the design: dose 120 mg/kg, route intraperitoneal. The note with it: in vivo.
Data set [27] relates to Mus musculus. Put plainly: Neurotoxicity in ip dosed Mus musculus MFI (mouse). The note with it: in vivo. In kind it is toxicity, organism-based.
For data set [28], the system named is Mus musculus. Put plainly: Neurotoxicity against Mus musculus MFI (mouse) assessed as irritability at 120 mg/kg, ip. In kind it is toxicity, organism-based. More on the design: dose 120 mg/kg, route intraperitoneal. The note with it: in vivo.
In data set [29] the test system is Mus musculus. Put plainly: Neurotoxicity against Mus musculus MFI (mouse) assessed as epilepsy at 180 mg/kg, ip. In kind it is toxicity, organism-based. Also on record: dose 180 mg/kg, route intraperitoneal. Particulars: in vivo.
Data set [30] relates to Mus musculus. Nature of the data set: Neurotoxicity against Mus musculus MFI (mouse) assessed as eye protrusion at 180 mg/kg, ip. In kind it is toxicity, organism-based. Also on record: dose 180 mg/kg, route intraperitoneal. Particulars: in vivo.
Data set [31] relates to Mus musculus. Nature of the data set: Neurotoxicity against Mus musculus MFI (mouse) assessed as epilepsy at 60 mg/kg, ip. Particulars: in vivo. In kind it is toxicity, organism-based. More on the design: dose 60 mg/kg, route intraperitoneal.
Data set [32] deals with Mus musculus. Put plainly: Neurotoxicity against Mus musculus MFI (mouse) assessed as effect on respiration at 120 mg/kg, ip. In kind it is toxicity, organism-based. Also on record: dose 120 mg/kg, route intraperitoneal. The note with it: in vivo.
Data set [33] has as its system Mus musculus. Nature of the data set: Neurotoxicity against Mus musculus MFI (mouse) assessed as effect on respiration at 180 mg/kg, ip. Particulars: in vivo. In kind it is toxicity, organism-based. More on the design: dose 180 mg/kg, route intraperitoneal.
Data set [34] concerns Mus musculus. Put plainly: Neurotoxicity against Mus musculus MFI (mouse) assessed as epilepsy at 120 mg/kg, ip. In kind it is toxicity, organism-based. Also on record: dose 120 mg/kg, route intraperitoneal. Particulars: in vivo.
Data set [35] relates to Mus musculus. Put plainly: Neurotoxicity against Mus musculus MFI (mouse) assessed as skeletal muscle incoordination at 120 mg/kg, ip. In kind it is toxicity, organism-based, Muscle tissue. Also on record: dose 120 mg/kg, route intraperitoneal. Particulars: in vivo.
The test system of data set [36] is Mus musculus. Put plainly: […] activity in Mus musculus MFI (mouse) assessed as inhibition of PBQ-induced writhing at 100 mg/kg, ip administered 1.5 hr prior to PBQ-challenge measured after 10 min relative to control. In kind it is functional. The note with it: route intraperitoneal.

One may read the inhibition in vivo as the drop in the measured response relative to a control, in per cent. Take `CC(COc1cccc(Cl)c1Cl)N1CCN(C)CC1.O=C(O)C(=O)O` (racemic): the Activity entry in data set [1], in [2], in [3], in [4], in data set [5] and in data set [6] was “Toxic” each time. For the same compound, the Activity entry in data set [7], in [8], in data set [10], in data set [11], in [12] and in data set [13] was “Toxic” throughout. Further, the Activity result in data set [15], in [18], in data set [19], in data set [20], in [21] and in [22] was “Toxic” in each case. The Activity entry in data set [23], in data set [24], in data set [25], in data set [26], in data set [28] and in [29] was “Toxic” throughout. In addition, the Activity entry in data set [30], in data set [31], in data set [32], in data set [33], in data set [34] and in [35] was “Toxic” throughout. For the same compound, in data set [9], the inhibition in vivo at 180 mg/kg was 100%. For the same compound, the inhibition in vivo at 120 mg/kg in [14] was determined as 75%. For the same compound, the minimal effective dose in data set [16] stood at 60 mg/kg. In addition, the inhibition in vivo at 60 mg/kg in data set [17] was 37.5%. For the same compound, the MTC in data set [27] turned out to be 120 mg/kg.

For `CC(=O)Oc1ccccc1C(=O)O` [ASPIRIN], the inhibition in vivo at 100 mg/kg in [36] is 100%.
